Measured values: patent US20260262643A1, “HERBICIDAL BENZOXAZINES” (FMC CORPORATION, priority 2022, published 2026)

Columns and labels:
foxtail, giant [1] = assay: Test A postemergence; assay type: in vivo, Setaria faberi; conditions: 1000 g ai/ha, Postemergence, 0 to 100 scale
Text: (§1) Seeds of plant species selected from barnyardgrass (Echinochloa crusgalli), blackgrass (Alopecurus myosuroides), corn (Zea mays), foxtail, giant (giant foxtail, Setaria faberi), goosegrass (Eleusine indica), kochia (Bassia scoparia), oat, wild (wild oat, Avena fatua), pigweed, palmer (palmer amaranth, palmer pigweed, Amaranthus palmeri), Pigweed, Redroot (redroot pigweed, Amaranthus retroflexus), ragweed (common ragweed, Ambrosia artemisiifolia), ryegrass, Italian (italian ryegrass, Lolium multiflorum), soybean (Glycine max), and wheat (Triticum aestivum) were planted into a blend of loam soil and sand and treated preemergence with a directed soil spray using test chemicals formulated in a non-phytotoxic solvent mixture which included a surfactant. At the same time, plants selected from these crops and weed species and also galium (catchweed bedstraw, Galium aparine) and horseweed (Erigeron canadensis) were planted in pots containing the same blend of loam soil and sand and treated with postemergence applications of test chemicals formulated in the same manner. Plants ranged in height from 2 to 10 cm and were in the one- to two-leaf stage for the postemergence treatment. Treated plants and untreated controls were maintained in a greenhouse for 10 days, after which time all treated plants were compared to untreated controls and visually evaluated for injury. Plant response ratings, summarized in Table A, are based on a 0 to 100 scale where 0 is no effect and 100 is complete control. A dash (-) response means no test result.

ryegrass, Italian [2] = assay: Test A preemergence; assay type: in vivo, Lolium multiflorum; conditions: 1000 g ai/ha, 0 to 100 scale (0 no effect, 100 complete control), 10 days
Text: as §1

pigweed, palmer [3] = assay: Test A postemergence; assay type: in vivo, Amaranthus palmeri; conditions: 1000 g ai/ha, Postemergence, 0 to 100 scale
Text: as §1

kochia [4] = assay: Test A postemergence; assay type: in vivo, Bassia scoparia; conditions: 1000 g ai/ha, Postemergence, 0 to 100 scale
Text: as §1

barnyardgrass = assay: Test B flooded paddy test; assay type: in vivo, Echinochloa crus-galli; conditions: 250 g ai/ha, Flood, 13 days, 0 to 100 scale (0 no effect, 100 complete control)
Procedure: (§2) Plant species in the flooded paddy test selected from barnyardgrass (Echinochloa crus-galli), ducksalad (Heteranthera limosa), rice (Oryza sativa), and sedge, umbrella (small-flower umbrella sedge, Cyperus difformis) were grown to the 2-leaf stage for testing. At time of treatment, test pots were flooded to 3 cm above the soil surface, treated by application of test compounds directly to the paddy water, and then maintained at that water depth for the duration of the test. Treated plants and controls were maintained in a greenhouse for 13 days, after which time all species were compared to controls and visually evaluated. Plant response ratings, summarized in Table B, are based on a scale of 0 to 100 where 0 is no effect and 100 is complete control. A dash (-) response means no test result.

ragweed [5] = assay: Test A preemergence; assay type: in vivo, Ambrosia artemisiifolia; conditions: 1000 g ai/ha, 0 to 100 scale (0 no effect, 100 complete control), 10 days
Text: as §1

ducksalad = assay: Test B flooded paddy test; assay type: in vivo, Heteranthera limosa; conditions: 250 g ai/ha, Flood, 13 days, 0 to 100 scale (0 no effect, 100 complete control)
Procedure: as §2

blackgrass [6] = assay: Test A preemergence; assay type: in vivo, Alopecurus myosuroides; conditions: 1000 g ai/ha, 0 to 100 scale (0 no effect, 100 complete control), 10 days
Text: as §1

galium = assay: Test A postemergence; assay type: in vivo, Galium aparine; conditions: 1000 g ai/ha, Postemergence, 0 to 100 scale
Text: as §1

rice = assay: Test B flooded paddy test; assay type: in vivo, Oryza sativa; conditions: 250 g ai/ha, Flood, 13 days, 0 to 100 scale (0 no effect, 100 complete control)
Procedure: as §2

goosegrass [7] = assay: Test A preemergence; assay type: in vivo, Eleusine indica; conditions: 1000 g ai/ha, 0 to 100 scale (0 no effect, 100 complete control), 10 days
Text: as §1

ryegrass, Italian [8] = assay: Test A postemergence; assay type: in vivo, Lolium multiflorum; conditions: 1000 g ai/ha, Postemergence, 0 to 100 scale
Text: as §1

ragweed [9] = assay: Test A postemergence; assay type: in vivo, Ambrosia artemisiifolia; conditions: 1000 g ai/ha, Postemergence, 0 to 100 scale
Text: as §1

foxtail, giant [10] = assay: Test A preemergence; assay type: in vivo, Setaria faberi; conditions: 1000 g ai/ha, 0 to 100 scale (0 no effect, 100 complete control), 10 days
Text: as §1

goosegrass [11] = assay: Test A postemergence; assay type: in vivo, Eleusine indica; conditions: 1000 g ai/ha, Postemergence, 0 to 100 scale
Text: as §1

sedge, umbrella = assay: Test B flooded paddy test; assay type: in vivo, Cyperus difformis; conditions: 250 g ai/ha, Flood, 13 days, 0 to 100 scale (0 no effect, 100 complete control)
Procedure: as §2

blackgrass [12] = assay: Test A postemergence; assay type: in vivo, Alopecurus myosuroides; conditions: 1000 g ai/ha, Postemergence, 0 to 100 scale
Text: as §1

horseweed = assay: Test A postemergence; assay type: in vivo, Erigeron canadensis; conditions: 1000 g ai/ha, Postemergence, 0 to 100 scale
Text: as §1

pigweed, palmer [13] = assay: Test A preemergence; assay type: in vivo, Amaranthus palmeri; conditions: 1000 g ai/ha, 0 to 100 scale (0 no effect, 100 complete control), 10 days
Text: as §1

kochia [14] = assay: Test A preemergence; assay type: in vivo, Bassia scoparia; conditions: 1000 g ai/ha, 0 to 100 scale (0 no effect, 100 complete control), 10 days
Text: as §1

COc1cccc2c1OC(C)CN2C(=O)c1cccc(-n2cncn2)c1 (stereo not shown) [Compound 41]
Plant response rating, Foxtail, Giant (foxtail, giant [1]): 60 | Plant response rating, Ryegrass, Italian (ryegrass, Italian [2]): 70 | Plant response rating, Pigweed, Palmer (pigweed, palmer [3]): 20 | Plant response rating, Kochia (kochia [4]): 20 | Plant response rating, Barnyardgrass (barnyardgrass): 0 | Plant response rating, Ragweed (ragweed [5]): 0 | Plant response rating, Ducksalad (ducksalad): 50 | Plant response rating, Blackgrass (blackgrass [6]): 30 | Plant response rating, Galium (galium): 70 | Plant response rating, Rice (rice): 0 | Plant response rating, Goosegrass (goosegrass [7]): 90 | Plant response rating, Ryegrass, Italian (ryegrass, Italian [8]): 60 | Plant response rating, Ragweed (ragweed [9]): 0 | Plant response rating, Foxtail, Giant (foxtail, giant [10]): 90 | Plant response rating, Goosegrass (goosegrass [11]): 0 | Plant response rating, Sedge, Umbrella (sedge, umbrella): 55 | Plant response rating, Blackgrass (blackgrass [12]): 50 | Plant response rating, Horseweed (horseweed): 0 | Plant response rating, Pigweed, Palmer (pigweed, palmer [13]): 30 | Plant response rating, Kochia (kochia [14]): 0

C[C@H]1CN(C(=O)c2cccc(-c3cnn(C)c3)c2)c2cccc(Cl)c2O1 [Compound 119, [(2S)-8-Chloro-2,3-dihydro-2-methyl-4H-1,4-benzoxazin-4-yl][3-(1-methyl-1H-pyrazol-4-yl)phenyl]methanone]
pest or weed control at 1000 g/ha (foxtail, giant [1]; Setaria faberi, post-emergence, 240 h, read-out: Plant response rating, Foxtail, Giant): 90% | pest or weed control at 1000 g/ha (ryegrass, Italian [2]; Lolium multiflorum, pre-emergence, 240 h, read-out: Plant response rating, Ryegrass, Italian): 50% | pest or weed control at 1000 g/ha (pigweed, palmer [3]; Amaranthus palmeri, post-emergence, 240 h, read-out: Plant response rating, Pigweed, Palmer): 80% | pest or weed control at 1000 g/ha (kochia [4]; Bassia scoparia, post-emergence, 240 h, read-out: Plant response rating, Kochia): 90% | pest or weed control at 250 g/ha (barnyardgrass; Echinochloa crus-galli, 312 h, read-out: Plant response rating, Barnyardgrass): 0% | pest or weed control at 1000 g/ha (ragweed [5]; Ambrosia artemisiifolia, pre-emergence, 240 h, read-out: Plant response rating, Ragweed): 90% | pest or weed control at 250 g/ha (ducksalad; Heteranthera limosa, 312 h, read-out: Plant response rating, Ducksalad): 0% | pest or weed control at 1000 g/ha (blackgrass [6]; Alopecurus myosuroides, pre-emergence, 240 h, read-out: Plant response rating, Blackgrass): 70% | pest or weed control at 1000 g/ha (galium; Galium, post-emergence, 240 h, read-out: Plant response rating, Galium): 90% | plant injury at 250 g/ha (rice; Oryza sativa, 312 h, read-out: Plant response rating, Rice): 0% | pest or weed control at 1000 g/ha (goosegrass [7]; Eleusine indica, pre-emergence, 240 h, read-out: Plant response rating, Goosegrass): 90% | pest or weed control at 1000 g/ha (ryegrass, Italian [8]; Lolium multiflorum, post-emergence, 240 h, read-out: Plant response rating, Ryegrass, Italian): 20% | pest or weed control at 1000 g/ha (ragweed [9]; Ambrosia artemisiifolia, post-emergence, 240 h, read-out: Plant response rating, Ragweed): 70% | pest or weed control at 1000 g/ha (foxtail, giant [10]; Setaria faberi, pre-emergence, 240 h, read-out: Plant response rating, Foxtail, Giant): 100% | pest or weed control at 1000 g/ha (goosegrass [11]; Eleusine indica, post-emergence, 240 h, read-out: Plant response rating, Goosegrass): 70% | pest or weed control at 250 g/ha (sedge, umbrella; Cyperus difformis, 312 h, read-out: Plant response rating, Sedge, Umbrella): 0% | pest or weed control at 1000 g/ha (blackgrass [12]; Alopecurus myosuroides, post-emergence, 240 h, read-out: Plant response rating, Blackgrass): 70% | pest or weed control at 1000 g/ha (horseweed; Erigeron canadensis, post-emergence, 240 h, read-out: Plant response rating, Horseweed): 0% | pest or weed control at 1000 g/ha (pigweed, palmer [13]; Amaranthus palmeri, pre-emergence, 240 h, read-out: Plant response rating, Pigweed, Palmer): 90% | pest or weed control at 1000 g/ha (kochia [14]; Bassia scoparia, pre-emergence, 240 h, read-out: Plant response rating, Kochia): 10%
